Tested on: hepatocytes
Assay: RNA-seq of hepatocytes treated with Phase III failure compounds
Procedure: RNA-seq was performed to determine the effects of the compounds on hepatocytes.
Significance was determined by the criteria of FPKM≥0.5, a log 2(fold-change)≥1, and a […].

C=CCNC1=C2C[C@@H](C)C[C@H](OC)[C@H](O)[C@@H](C)/C=C(\C)[C@H](OC(N)=O)[C@@H](OC)/C=C\C=C(/C)C(=O)NC(=CC1=O)C2=O [17-MG (Tanespimycin), Tanespimycin]
RNA-seq results, CYP2B6 expression: 1.32
RNA-seq results, CYP2C19 expression: 0.34
RNA-seq results, CYP2D6 expression: 0.06
RNA-seq results, CYP3A4 expression: 2.50
RNA-seq results, CYP7B1 expression: 0.43
RNA-seq results, CYP39A1 expression: 1.38
RNA-seq results: CYP2B6 expression: 0.2
RNA-seq results: CYP2C19 expression: −1.4
RNA-seq results: CYP2D6 expression: 0.27
RNA-seq results: CYP3A4 expression: 0.96
RNA-seq results: CYP7B1 expression: −1.05
RNA-seq results: CYP39A1 expression: −0.62
RNA-seq results: A1BG expression (gene A1BG, hepatocytes): −0.10
RNA-seq results: AGTR1 expression (gene AGTR1, hepatocytes): −0.03
RNA-seq results: AGXT expression (gene AGXT, hepatocytes): 0.27
RNA-seq results: AHI1 expression (gene AHI1, hepatocytes): 0.39
RNA-seq results: AMPD3 expression (gene AMPD3, hepatocytes): 1.15
RNA-seq results: AMT expression (gene AMT, hepatocytes): 0.31
RNA-seq results: ANGPTL3 expression (gene ANGPTL3, hepatocytes): 0.06
RNA-seq results: ANKS4B expression (gene ANKS4B, hepatocytes): 1.12
RNA-seq results: ANKS6 expression (gene ANKS6, hepatocytes): −0.15
RNA-seq results: ANPEP expression (gene ANPEP, hepatocytes): −0.06
RNA-seq results: AOC2 expression (gene AOC2, hepatocytes): 0.24
RNA-seq results: APOA2 expression (gene APOA2, hepatocytes): −0.64
RNA-seq results: APOA5 expression (gene APOA5, hepatocytes): 0.07
RNA-seq results: APOB expression (gene APOB, hepatocytes): 2.13
RNA-seq results: COG5 expression (gene COG5, hepatocytes): −1.94
RNA-seq results: COG6 expression (gene COG6, hepatocytes): −0.28
RNA-seq results: COL1A1 expression (gene COL1A1, hepatocytes): 0.45
RNA-seq results: COX6A1 expression (gene COX6A1, hepatocytes): 0.27
RNA-seq results: CP expression (gene CP, hepatocytes): 0.19
RNA-seq results: CPS1 expression (gene CPS1, hepatocytes): −0.79
RNA-seq results: CPT1A expression (gene CPT1A, hepatocytes): −1.18
RNA-seq results: CPT2 expression (gene CPT2, hepatocytes): 1.3
RNA-seq results: CROT expression (gene CROT, hepatocytes): 0.23
RNA-seq results: CSPP1 expression (gene CSPP1, hepatocytes): −0.45
RNA-seq results: CTC1 expression (gene CTC1, hepatocytes): 0.65
RNA-seq results: CTDSP2 expression (gene CTDSP2, hepatocytes): −0.36
RNA-seq results: CTH expression (gene CTH, hepatocytes): 1.32
RNA-seq results: CTNS expression (gene CTNS, hepatocytes): −0.39
RNA-seq results: CTSF expression (gene CTSF, hepatocytes): 0.01
RNA-seq results: CTSK expression (gene CTSK, hepatocytes): 1.01
RNA-seq results: CYB5A expression (gene CYB5A, hepatocytes): −0.54
RNA-seq results: CYB5R3 expression (gene CYB5R3, hepatocytes): −0.57
RNA-seq results: CYP27A1 expression (gene CYP27A1, hepatocytes): −0.12
RNA-seq results: DAO expression (gene DAO, hepatocytes): −0.79
RNA-seq results: DBT expression (gene DBT, hepatocytes): −0.27
RNA-seq results: DCDC2 expression (gene DCDC2, hepatocytes): −2.14
RNA-seq results: DCXR expression (gene DCXR, hepatocytes): −0.21
RNA-seq results: FABP1 expression (gene FABP1, hepatocytes): −0.95
RNA-seq results: FADD expression (gene FADD, hepatocytes): −0.41
RNA-seq results: FAM111A expression (gene FAM111A, hepatocytes): 0.93
RNA-seq results: FAM111B expression (gene FAM111B, hepatocytes): −1.24
RNA-seq results: FAN1 expression (gene FAN1, hepatocytes): 0.32
RNA-seq results: FARS2 expression (gene FARS2, hepatocytes): −3
RNA-seq results: FASLG expression (gene FASLG, hepatocytes): −1.15
RNA-seq results: FGA expression (gene FGA, hepatocytes): 0.46
RNA-seq results: FGD1 expression (gene FGD1, hepatocytes): −1.37
RNA-seq results: FGFR2 expression (gene FGFR2, hepatocytes): −2.48
RNA-seq results: FIG4 expression (gene FIG4, hepatocytes): −0.69
RNA-seq results: FIS1 expression (gene FIS1, hepatocytes): −0.22
RNA-seq results: FTCD expression (gene FTCD, hepatocytes): −1.66
RNA-seq results: FTH1 expression (gene FTH1, hepatocytes): −0.49
RNA-seq results: FUCA1 expression (gene FUCA1, hepatocytes): 0.43
RNA-seq results: FXN expression (gene FXN, hepatocytes): −1.04
RNA-seq results: G6PC3 expression (gene G6PC3, hepatocytes): −0.38
RNA-seq results: G6PC expression (gene G6PC, hepatocytes): −0.03
RNA-seq results: G6PD expression (gene G6PD, hepatocytes): 1.7
RNA-seq results: GALK1 expression (gene GALK1, hepatocytes): −0.7
RNA-seq results: GALK2 expression (gene GALK2, hepatocytes): −1.47
RNA-seq results: GALT expression (gene GALT, hepatocytes): −0.43
RNA-seq results: GATA6 expression (gene GATA6, hepatocytes): −0.77
RNA-seq results: GATM expression (gene GATM, hepatocytes): −1.11
RNA-seq results: GBA expression (gene GBA, hepatocytes): −0.38
RNA-seq results: GBE1 expression (gene GBE1, hepatocytes): −2.25
RNA-seq results: GCH1 expression (gene GCH1, hepatocytes): 0.43
RNA-seq results: GCKR expression (gene GCKR, hepatocytes): −0.16
RNA-seq results: GCLC expression (gene GCLC, hepatocytes): −0.18
RNA-seq results: GOSH expression (gene GOSH, hepatocytes): −1.49
RNA-seq results: RRM2B (gene RRM2B, hepatocytes): 1.19
RNA-seq results: RSAD1 (gene RSAD1, hepatocytes): −0.23
RNA-seq results: SAMHD1 (gene SAMHD1, hepatocytes): −0.05
RNA-seq results: SC5D (gene SC5D, hepatocytes): 1.56
RNA-seq results: SCARB1 (gene SCARB1, hepatocytes): −0.35
RNA-seq results: SCN9A (gene SCN9A, hepatocytes): −0.22
RNA-seq results: SDCCAG8 (gene SDCCAG8, hepatocytes): 0.11
RNA-seq results: SEPN1 (gene SEPN1, hepatocytes): −0.07
RNA-seq results: SERAC1 (gene SERAC1, hepatocytes): 0.26
RNA-seq results: SERPINA1 (gene SERPINA1, hepatocytes): −0.05
RNA-seq results: SERPING1 (gene SERPING1, hepatocytes): 0.28
RNA-seq results: SERPINI1 (gene SERPINI1, hepatocytes): 0.22
RNA-seq results: SETBP1 (gene SETBP1, hepatocytes): 0.54
RNA-seq results: SFXN4 (gene SFXN4, hepatocytes): −0.14
RNA-seq results: SLC10A1 (gene SLC10A1, hepatocytes): 1.13
RNA-seq results: SLC10A3 (gene SLC10A3, hepatocytes): −1.25
RNA-seq results: SLC10A5 (gene SLC10A5, hepatocytes): 2.20
RNA-seq results: SLC10A7 (gene SLC10A7, hepatocytes): 0.55
RNA-seq results: SLC11A2 (gene SLC11A2, hepatocytes): 0.65
RNA-seq results: SLC19A1 (gene SLC19A1, hepatocytes): −0.71
RNA-seq results: SLC19A2 (gene SLC19A2, hepatocytes): 0.62
RNA-seq results: SLC19A3 (gene SLC19A3, hepatocytes): 0.68
RNA-seq results: SLC22A1 (gene SLC22A1, hepatocytes): 0.08
RNA-seq results: SLC22A5 (gene SLC22A5, hepatocytes): −0.72
RNA-seq results: SLC25A1 (gene SLC25A1, hepatocytes): −0.29
RNA-seq results: SLC25A10 (gene SLC25A10, hepatocytes): −0.45
RNA-seq results: SLC25A12 (gene SLC25A12, hepatocytes): −0.06
RNA-seq results: SLC25A13 (gene SLC25A13, hepatocytes): 0.72
RNA-seq results: SLC25A15 (gene SLC25A15, hepatocytes): 0.58
RNA-seq results: SLC25A19 (gene SLC25A19, hepatocytes): −0.70
RNA-seq results: SLC25A20 (gene SLC25A20, hepatocytes): −0.52
RNA-seq results: SLC25A29 (gene SLC25A29, hepatocytes): −1.07
RNA-seq results: SLC25A32 (gene SLC25A32, hepatocytes): −0.50
